PMC7375528, “Piperidine scaffold as the novel P2-ligands in cyclopropyl-containing HIV-1 protease inhibitors: Structure-based design, synthesis, biological evaluation and docking study” (PLoS ONE, 2020)

Columns and labels:
[1] = tested on: DRV-resistant HIV-1 variants; assay: HIV-1 infectivity assay, DRV-resistant; format: cell-based; conditions: Human immunodeficiency virus 1, read-out: inhibition against DRV-resistant HIV-1 variants
Procedure: (§1) . Inhibitors dissolved in dimethylsulfoxide (DMSO) and diluted to appropriate concentrations, were added into culture medium at 5 hours of post-transfection. After incubating for 48 hours at temperature 37 °C, pseudotyped viruses in 10 μL of supernatant were used to infect SupT1 cells for 48 hours, followed by measuring luciferase activity of newly infected cells using Centro LB960 (Berthold).
(§2) Fig 6 Inhibition of inhibitors against wild-type and DRV-resistant HIV-1 variants.

[2] = target: T1, wild-type HIV-1 PR (Human immunodeficiency virus type 1 group M subtype B, UniProt P04585); assay: In vitro HIV-1 PR activity assay (FRET); format: biochemical
T1 construct: HIV-1 protease was cloned and heterologously expressed in Escherichia coli and purified; made in house; host or cells: Escherichia coli
Procedure: (§3) The inhibitory effect of all new designed inhibitors were measured using fluorescence resonance energy transfer (FRET) method. […] The energy transfer donor (EDANS) and acceptor (DABCYL) dyes are labeled at two ends of the peptide to perform FRET. Excitation and emission wavelengths were set at 340 nm and 490 nm. Inhibitors were dissolved in dimethylsulfoxide (DMSO) and diluted to appropriate concentrations. HIV-1 protease was cloned and heterologously expressed in Escherichia coli and purified. The experiment was carried out in 96-well plates. The FRET assay reaction buffer contained 0.1 M sodium acetate, 1 M sodium chloride, 1 mM ethylenediaminetetraacetic acid (EDTA), 1 mM dithiothreitol (DTT), 2% DMSO and 1 mg/mL bovine serum albumin (BSA) with an adjusted pH 4.7. Protease and inhibitor were mixed and incubated for 20–30 mins at room temperature and then the substrate was added. Each reaction was recorded for about 10 mins. From plots of concentration versus the calculated percent inhibition, IC50 values were determined.
as §3, with “20-30” for “20–30”, “mins.” for “mins. From plots of concentration versus the calculated percent inhibition, IC50 values were determined.”

[3] = Cytotoxicity assay (cell counting kit-8); format: cell-based; conditions: human; 293T cells, CCK-8, 24h exposure
Procedure: Selected inhibitors were further evaluated in cytotoxicity assay using a cell counting kit-8 assay. […] After 24h of culture, 1μL of drugs were added to each well. After another 24h of culture, 10 μL of CCK-8 was added to each well. Absorbance was quantified at wavelength 450 nm using an EnVision multilabel reader (PerkinElmer) after 2h at room temperature.

[4] = tested on: wild-type HIV-1 variants; assay: HIV-1 infectivity assay, wild-type; format: cell-based; conditions: Human immunodeficiency virus 1, read-out: inhibition against wild-type HIV-1 variants
Procedure: as §1
For the assay using wild type HIV-1, 1×10^6 SupT1 cells were infected with 100 μL HIV-1 NL4-3 in the presence of 100 nM chemicals and 10 μg/mL polybrene, keeping a total volume of 500 μL (Spin infection at 1800rpm, 45min). Cells were washed once in the next morning and medium were replaced with fresh medium containing 100 nM chemicals. At 48 hpi, viruses were harvested and 50 μL of viruses were used to infect TZM-bl cells, followed by measuring luciferase activity in the infected cells.
as §2

[5] = tested on: HIV-1 protease; design: method as in PMID 32057582; conditions: previously reported PIs; cited from earlier work

Compound	inhibition at 10 µM [1]	IC50 [2]	improvement of potency over 23a ([2]; ratio of IC50 values, (R)- vs (S)-configuration)	CC50 at 24 h [3]	inhibition at 10 µM [4]	melting point	IC50 [5]
COc1ccc(S(=O)(=O)N(C[C@@H](O)[C@H](Cc2ccccc2)NC(=O)[C@@H]2CCCNC2)C2CC2)cc1 [22a, (R)-N-((2S,3R)-4-((N-cyclopropyl-4-methoxyphenyl)sulfonamido)-3-hydroxy-1-phenylbutan-2-yl)piperidine-3-carboxamide]	26%	3.61 nM	120 fold	> 100000 nM	42%	162.8 to 164.3 °C	
COc1ccc(S(=O)(=O)N(C[C@@H](O)[C@H](Cc2ccccc2)NC(=O)[C@@H]2CCCN(C)C2)C2CC2)cc1 [24a, (R)-N-((2S,3R)-4-((N-cyclopropyl-4-methoxyphenyl)sulfonamido)-3-hydroxy-1-phenylbutan-2-yl)-1-methylpiperidine-3-carboxamide]	8%	8.07 ± 3.59 nM		> 100000 nM	16%	86.4 to 88.2 °C	
CN1CCC[C@@H](C(=O)N[C@@H](Cc2ccccc2)[C@H](O)CN(C2CC2)S(=O)(=O)c2ccc(C(F)(F)F)cc2)C1 [24b, (R)-N-((2S,3R)-4-((N-cyclopropyl-4-(trifluoromethyl)phenyl)sulfonamido)-3-hydroxy-1-phenylbutan-2-yl)-1-methylpiperidine-3-carboxamide]	7%	9.28 ± 5.66 nM		> 100000 nM	12%	82.9 to 84.7 °C	
COc1ccc(S(=O)(=O)N(C[C@@H](O)[C@H](Cc2ccccc2)NC(=O)OCCN2CCOCC2)C2CC2)cc1 [A]							53 nM
O=C(N[C@@H](Cc1ccccc1)[C@H](O)CN(C1CC1)S(=O)(=O)c1ccc(C(F)(F)F)cc1)N1CCOCC1 [B]							47 nM
